Measured values published in patent publication US10030016B2 (Sunesis Pharmaceuticals, Inc., priority 2009, dated 2018).
pEC50, pIC50: −log10 of the molar value. Structures can show the parent of a compound that is named as a salt. Where two headings read alike, the source gives them in different places.

Legend:
[1] = system: phospho-akt (Thr308) in PC-3 cells; test: Inhibition of phospho-akt (Thr308) in PC-3 cells, MSD phospho-akt 308 ELISA kit; assay type: cell-based; settings: Homo sapiens, 2 hours, no serum, read-out: EC50
Description: PC-3 cells were harvested by trypsin and counted. Cells were plated in coated 96-well flat bottom plates (plate 15,000 cells/well in 100 ul growth media (10% FBS, 1× pen-strep) an place in an incubator overnight.
Subject inhibitors were stocked at 50 mM, then diluted to 30 mM (4.8 μl cpd plus […] DMSO) in 100% DMSO. Three-fold dilutions were performed from 30 mM stock. (4 μl into 8 ul 100% DMSO). Aliquots of 1.0 μl of inhibitor solution were transferred into SF Medium (using deep well block).
Control wells were prepared as follows. For DMSO high controls, 1.0 μl of 100% DMSO was added into 1.0 ml SF. For low controls for PC-3 cells, 5 μM of Wortmannin (10 μl of 1 mM Wortmannin stock was added into 2 ml SF Medium. The supernatant media was removed and the plate was blotted. 100 μl of controls/media or compound/media were added to cells and placed in incubator for 2 hours. The supernatant media was removed and the plate was blotted. 55 μl of the MSD complete lysis buffer was added (10 mls Tris Lysis buffer, 200 ul protease inhibitor, 100 ul phosphatase inhibitor 1, and 100 ul phosphatase inhibitor II). The plate was placed on a plate shaker for 60 mins at 4 deg.
MSD plates were blocked for 1 hour by adding 150 μl of Blocking Solution (3% BSA) to each well. The MSD plates were washed 4× with TBST, and 50 μl lysates were transferred to MSD plate and place on plate shaker shake at 4 degrees O/N, light shaking (speed 3.5). The plate was washed 4× with TBST.
25 μl of Ab detection solution was added to each well. The plate was sealed and incubated 1 hr RT, light shaking (speed 3.5). The plate was washed 4 times with TBST. 150 μl of Read Buffer was added (5 mls 4×MSD Read Buffer+15 mls water). Finally the plate was read immediately on the MSD plate reader.

PDK1 = PDK1 (Homo sapiens (Human), UniProt O15530); test: PDK1 kinase assay (coupled PDK1/AKT/FAM-crosstide assay, IMAP fluorescence polarization); assay type: biochemical
Chain of PDK1 (O15530 51-359): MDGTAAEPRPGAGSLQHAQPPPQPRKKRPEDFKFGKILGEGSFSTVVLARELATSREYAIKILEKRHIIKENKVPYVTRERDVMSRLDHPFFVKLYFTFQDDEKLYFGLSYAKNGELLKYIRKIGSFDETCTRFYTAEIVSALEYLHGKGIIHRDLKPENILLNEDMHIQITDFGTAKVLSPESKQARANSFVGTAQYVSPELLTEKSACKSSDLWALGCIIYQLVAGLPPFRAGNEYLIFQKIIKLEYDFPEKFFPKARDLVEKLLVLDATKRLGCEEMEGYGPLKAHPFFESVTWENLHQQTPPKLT
Description: A PDK1 kinase assay was performed as follows. PDK1 (amino acids 51-359) and AKT2 (amino acids 140-467 fused to PIFtide, amino acids […]) were expressed as N-terminally tagged GST fusion proteins in insect cells and purified to homogeneity. Enzyme activity was determined in a coupled PDK1/AKT/FAM-crosstide assay and phosphorylation of FAM-crosstide was determined by standard IMAP protocol (Molecular Devices). For inhibition studies, compounds were titrated 4-fold in DMSO and diluted 40-fold into assay buffer (10 mM Tris HCl pH7.2; 10 mM MgCl2; 0.01% Triton X-100; 1 mM DTT) containing PDK1, AKT2, and FAM-crosstide (final concentrations: 0.75 nM PDK1, 10 nM unphosphorylated AKT2, and 100 nM crosstide substrate). The kinase reaction was initiated by adding ATP to a final concentration of 40 μM of PDK1 and incubated at 25° C. for 30 min. To detect assay product, the kinase reaction was combined with Progressive Binding Solution (1:600 Progressive Binding Reagent, 50% Buffer A, 50% Buffer B, Molecular Devices) in a 1:3 ratio. The mixture was incubated for 2 hours at 25° C. and the plate was scanned on an Analyst AD with excitation at 485 nm and emission at 530 nm. The fluorescence polarization value “P” is defined by the equation below. The value “mP” is generated by multiplying the P value for each reaction well by a factor of 1000. The value “ΔmP” for each well is the mP value for that well minus the mP value for the average negative control. P=(Fpar−Fperp)/(Fpar+Fperp) Eq.:
Where “par” is fluorescence intensity parallel to the excitation plane; and “perp” is fluorescence intensity perpendicular to the excitation plane. ΔmP values were plotted as a function of compound concentration and the data were analyzed with a 4-parameter fit using GraphPad Prism software.

[2] = inhibition of P308 Akt in PC-3 cells, MSD
[3] = inhibition of phospo-PDK1 in vitro
[4] = inhibition of P308 Akt in PC-3 cells using MSD

Row | SMILES | pEC50 [1, 2] | pIC50 (PDK1; [3]) | pEC50 [1, 4] | further results
1 | Nc1ncnc2ccc(-c3ccc(CNc4ncc(NS(=O)(=O)Cc5ccccc5)cc4C(=O)NCc4ccc(F)c(F)c4)s3)cc12 [Example 8.6.6, 2-({[5-(4-aminoquinazolin-6-yl)thiophen-2-yl]methyl}amino)-5-[(benzylsulfonyl)amino]-N-(3,4-difluorobenzyl) pyridine-3-carboxamide] | 5.00 to 6.00 | 5.30 to 6.00 |  | 
2 | C[C@H](NC(=O)c1nc(C#N)cnc1NCc1ccc(-c2cnc(N)c(CCC3CCNC3)n2)cc1)c1ccc(F)c(F)c1 (single isomer, unassigned) [Example 79] |  |  |  | pEC50 ([1]; PC-3, 2 h, inhibition of P308 Akt in PC-3 cells using MSD): > 6.00; pIC50 (PDK1; inhibition of PDK1 in vitro): > 7.00
3 | Nc1ncnc2[nH]cc(-c3ccc(CNc4ncccc4C(=O)NCc4ccc(F)c(F)c4)s3)c12 [Example 4.8, 2-(((5-(4-amino-7H-pyrrolo[2,3-d]pyrimidin-5-yl)thiophen-2-yl)methyl)amino)-N-(3,4-difluorobenzyl)nicotinamide] | > 6.00 | > 7.00 |  | 
4 | CC(Nc1ncc(C#N)nc1C(=O)N[C@@H](C)c1ccc(F)c(F)c1)c1ccc(-c2cnc3[nH]nc(N)c3c2)cc1 (stereo in doubt) [Example 350, 3-((R)-1-(4-(3-amino-1H-pyrazolo[3,4-b]pyridin-5-yl)phenyl)ethylamino)-6-cyano-N-((S)-1-(3,4-difluorophenyl)ethyl) pyrazine-2-carboxamide] |  |  | < 5.00 | pIC50 (PDK1; inhibition of PDK1 in vitro): < 5.30
5 | C[C@H](NC(=O)c1nc(C#N)cnc1NCc1ccc(-c2cnc(N)c(CCC3CCCNC3)n2)cc1)c1ccc(F)c(F)c1 (some centres unmarked) [Example 81] |  |  | 5.00 to 6.00 | pIC50 (PDK1): > 7.00
6 | CNc1ncc(-c2ccc(CNc3ncc(C#N)cc3C(=O)N[C@@H](C)c3ccc(F)cc3)cc2)cc1F [Example 109] |  |  | < 5.00 | pIC50 (PDK1; inhibition of PDK1 in vitro): < 5.30
7 | Nc1n[nH]c2ncc(-c3ccc(CNc4ncc(C(F)(F)F)cc4C(=O)Nc4cccc(F)c4)cc3)cc12 [Example 262, 2-(4-(3-amino-1H-pyrazolo [3,4-b]pyridin-5-yl)benzylamino)-N-(3-fluorophenyl)-5-(trifluoromethyl) nicotinamide] |  |  | > 6.00 | pIC50 (PDK1; inhibition of PDK1 in vitro): > 7.00
8 | CC(C)Oc1cc(CNc2ncccc2C(=O)NCc2ccc(F)c(F)c2)cc(-c2ccc3ncnc(NC4CC4)c3c2)c1 [Example 5.5, 2-(3-(4-(cyclopropylamino)quinazolin-6-yl)-5-isopropoxy-benzylamino)-N-(3,4-difluorobenzyl)nicotinamide] | < 5.00 | > 7.00 |  | 
9 | C[C@H](NC(=O)c1cccnc1NCc1ccc(-c2ccc3ncnc(N)c3c2)s1)c1cc(F)c(F)c(F)c1 [Example 3.63, (S)-2-(((5-(4-aminoquinazolin-6-yl)thiophen-2-yl)methyl)amino)-N-(1-(3,4,5-trifluorophenyl)ethyl) nicotinamide (TFA salt)] | > 6.00 | > 7.00 |  | 
10 | O=C(NC1CC1)c1cccnc1NCc1cccc(-c2c[nH]c3ncccc23)c1 [Example 1.12, N-cyclopropyl-2-{[3-(1H-pyrrolo [2,3-b]pyridin-3-yl)benzyl]amino} pyridine-3-carboxamide] |  | < 5.30 |  | 
11 | Nc1ncnc2ccc(-c3ccc(CNc4ncccc4S(=O)(=O)NCc4ccc(F)c(F)c4)s3)cc12 [Example 20.2, 2-(((5-(4-aminoquinazolin-6-yl)thiophen-2-yl)methyl)amino)-N-(3,4-difluorobenzyl)pyridine-3-sulfonamide] |  | < 5.30 |  | 
12 | C[C@H](NC(=O)c1cccnc1NCc1ccc(-c2cc3c(cn2)ncn3C)s1)c1ccc(F)cc1 [Example 2.6, (S)-N-(1-(4-fluorophenyl)ethyl)-2-(((5-(1-methyl-1H-imidazo [4,5-c]pyridin-6-yl)thiophen-2-yl)methyl)amino)nicotinamide] | < 5.00 |  |  | 
13 | C[C@H](NC(=O)c1cc(C#N)cnc1N[C@H](C)c1ccc(-c2cnc3[nH]nc(N)c3c2)nc1)c1ccc(F)cc1 [Example 416, 2-{(R)-1-[6-(3-Amino-1H-pyrazolo[3,4-b]pyridin-5-yl)-pyridin-3-yl]-ethylamino}-5-cyano-N-[(S)-1-(4-fluoro-phenyl)-ethyl]-nicotinamide] |  |  | > 6.00 | 
14 | C[C@H](NC(=O)c1cccnc1NCc1ccc(-c2ccc3nc(N)sc3c2)s1)c1ccc(F)cc1 [Example 2.22, (S)-2-(((5-(2-aminobenzo[d]thiazol-6-yl)thiophen-2-yl)methyl)amino)-N-(1-(4-fluorophenyl)ethyl) nicotinamide] | < 5.00 |  |  | 
15 | COCCNC(=O)c1cccnc1NCc1ccc(-c2ccc3ncnc(N)c3c2)s1 [Example 3.35, 2-({[5-(4-aminoquinazolin-6-yl)thiophen-2-yl]methyl}amino)-N-(2-methoxyethyl)pyridine-3-carboxamide (TFA salt)] | 5.00 to 6.00 |  |  | 
16 | C[C@H](NC(=O)c1nc(C#N)cnc1NCc1ccc(-c2cnc(N)c(CO)n2)cc1)c1ccc(F)c(F)c1 [Example 241, 3-[4-(5-Amino-6-hydroxy-methyl-pyrazin-2-yl)-benzylamino]-6-cyano-pyrazine-2-carboxylic acid [(S)-1-(3,4-difluoro-phenyl)-ethyl]-amide] |  |  | > 6.00 | 
17 | C[C@H](NC(=O)c1nc(C#N)cnc1NCC#Cc1ccc2nc(N)ncc2c1)c1ccc(F)c(F)c1 [Example 258, (S)-3-(3-(2-aminoquinazolin-6-yl)prop-2-ynylamino)-6-cyano-N-(1-(3,4-difluorophenyl)ethyl) pyrazine-2-carboxamide] |  |  | > 6.00 | 
18 | CCc1cnc(NCc2ccc(-c3ccc4ncnc(N)c4c3)s2)c(C(=O)NCc2ccc(F)c(F)c2)c1 [Ex. 8.11, 2-({[5-(4-aminoquinazolin-6-yl)thiophen-2-yl]methyl}amino)-N-(3,4-difluorobenzyl)-5-ethylpyridine-3-carboxamide] | > 6.00 |  |  | 
19 | C[C@H](NC(=O)c1cccnc1NCc1ccc(-c2ccc3ncncc3c2)s1)c1ccc(F)cc1 [Example 2.11, (S)-N-(1-(4-fluorophenyl)ethyl)-2-(((5-(quinazolin-6-yl)thiophen-2-yl)methyl)amino)nicotinamide] |  | 6.00 to 7.00 |  | 
20 | Cc1nc(N)cnc1-c1ccc(CNc2ncc(C#N)cc2C(=O)N[C@@H](C)c2ccc(F)cc2)cc1 [Example 107, (S)-2-(4-(5-amino-3-methylpyrazin-2-yl)benzylamino)-5-cyano-N-(1-(4-fluorophenyl)ethyl)nicotinamide] |  |  | < 5.00 | 
21 | C[C@H](NC(=O)c1cc(C#N)cnc1NCc1ccc(-c2cnc3[nH]nc(N)c3c2)cc1F)c1ccc(F)cc1 [Example 407, 2-[4-(3-Amino-1H-pyrazolo [3,4-b]pyridin-5-yl)-2-fluoro-benzylamino]-5-cyano-N-[(S)-1-(4-fluoro-phenyl)-ethyl]-nicotinamide] |  |  | > 6.00 | 
22 | N#Cc1cnc(NCc2ccc(-c3cnc4[nH]ncc4c3)cc2)c(C(=O)NCc2ccc(F)c(F)c2)c1 [Example 396, 5-Cyano-N-(3,4-difluoro-benzyl)-2-[4-(1H-pyrazolo[3,4-b]pyridin-5-yl)-benzylamino]-nicotinamide] |  |  | > 6.00 | 
23 | C[C@H](NC(=O)c1cccnc1NCc1ccc(-c2ccc3ncnc(NCCO)c3c2)s1)c1ccc(F)cc1 [Example 2.14, (S)-N-(1-(4-fluorophenyl)ethyl)-2-(((5-(4-(2-hydroxyethylamino)quinazolin-6-yl)thiophen-2-yl)methyl)amino)nicotinamide] | 5.00 to 6.00 |  |  | 
